Results: ChEMBL document CHEMBL5584203, “Discovery of sinomenine/8-Bis(benzylthio)octanoic acid hybrids as potential anti-leukemia drug candidate via mitochondrial pathway” (Bioorg Med Chem Lett, 2024)

Legend:
K562 [1] = test: Induction of cell cycle arrest in human K562 cells assessed as G2 phase cells at 2.45 uM by propidium iodide staining based flow cytometry analysis (reference value: 12.80%); assay type: functional
K562 [2] = test: Induction of cell cycle arrest in human K562 cells assessed as G1 phase cells at 4.90 uM by propidium iodide staining based flow cytometry analysis (reference value: 43.16%); assay type: functional; conditions: dose 4.9 µM
K562 [3] = test: Induction of apoptosis in human K562 cells assessed as late apoptotic cells at 4.90 uM by Annexin V-FITC and PI staining based flow cytometry analysis (reference value: 3.04%); assay type: functional; conditions: dose 4.9 µM
Cell membrane [4] = test: Induction of mitochondrial membrane potential loss in human K562 cells assessed as increase in apoptotic cells at 1.23 uM by JC-1 staining based flow cytometry analysis (reference value: 5.70); assay type: cell membranes
K562 [5] = test: Induction of cell cycle arrest in human K562 cells assessed as G2 phase cells at 4.90 uM by propidium iodide staining based flow cytometry analysis (reference value: 12.80%); assay type: functional; conditions: dose 4.9 µM
K562 [6] = test: Antiproliferative activity against human K562 cells by CCK8 assay; assay type: functional, cell-based
K562 [7] = test: Induction of apoptosis in human K562 cells assessed as late apoptotic cells at 2.45 uM by Annexin V-FITC and PI staining based flow cytometry analysis (reference value: 3.04%); assay type: functional
K562 [8] = test: Induction of cell cycle arrest in human K562 cells assessed as S phase cells at 1.23 uM by propidium iodide staining based flow cytometry analysis (reference value: 44.03%); assay type: functional
K562 [9] = test: Induction of apoptosis in human K562 cells assessed as early apoptotic cells at 4.90 uM by Annexin V-FITC and PI staining based flow cytometry analysis (reference value: 3.31%); assay type: functional; conditions: dose 4.9 µM
Cell membrane [10] = test: Induction of mitochondrial membrane potential loss in human K562 cells assessed as increase in apoptotic cells at 2.45 uM by JC-1 staining based flow cytometry analysis (reference value: 5.70); assay type: cell membranes
PANC-1 = test: Antiproliferative activity against human PANC-1 cells by CCK8 assay; assay type: functional, cell-based
K562 [11] = test: Induction of apoptosis in human K562 cells assessed as chromatin condensation incubated for 48 hrs by Hoechst 33,258 staining based fluorescence microscopy analysis; assay type: functional, cell-based; conditions: dose 1.23-4.9 µM
A549 = test: Antiproliferative activity against human A549 cells by CCK8 assay; assay type: functional, cell-based
K562 [12] = test: Induction of cell cycle arrest in human K562 cells assessed as G2 phase cells at 1.23 uM by propidium iodide staining based flow cytometry analysis (reference value: 12.80%); assay type: functional
K562 [13] = test: Induction of cell cycle arrest in human K562 cells assessed as S phase cells at 4.90 uM by propidium iodide staining based flow cytometry analysis (reference value: 44.03%); assay type: functional; conditions: dose 4.9 µM
K562 [14] = test: Induction of apoptosis in human K562 cells assessed as early apoptotic cells at 2.45 uM by Annexin V-FITC and PI staining based flow cytometry analysis (reference value: 3.31%); assay type: functional
K562 [15] = test: Induction of cell cycle arrest in human K562 cells assessed as S phase cells at 2.45 uM by propidium iodide staining based flow cytometry analysis (reference value: 44.03%); assay type: functional
Cell membrane [16] = test: Induction of mitochondrial membrane potential loss in human K562 cells assessed as increase in apoptotic cells at 4.90 uM by JC-1 staining based flow cytometry analysis (reference value: 5.70); assay type: cell membranes; conditions: dose 4.9 µM
HepG2 = test: Antiproliferative activity against human HepG2 cells by CCK8 assay; assay type: functional, cell-based
K562 [17] = test: Induction of apoptosis in human K562 cells assessed as late apoptotic cells at 1.23 uM by Annexin V-FITC and PI staining based flow cytometry analysis (reference value: 3.04%); assay type: functional
MDA-MB-231 = test: Antiproliferative activity against human MDA-MB-231 cells by CCK8 assay; assay type: functional, cell-based
MCF7 = test: Antiproliferative activity against human MCF7 cells by CCK8 assay; assay type: functional, cell-based
[18] = Cytotoxicity against human PBMCs by CCK8 assay; assay type: toxicity, cell-based, PBMC
K562 [19] = test: Induction of apoptosis in human K562 cells assessed as cell membrane rupture incubated for 48 hrs by Hoechst 33,258 staining based fluorescence microscopy analysis; assay type: functional; conditions: dose 1.23-4.9 µM
K562 [20] = test: Induction of apoptosis in human K562 cells assessed as early apoptotic cells at 1.23 uM by Annexin V-FITC and PI staining based flow cytometry analysis (reference value: 3.31%); assay type: functional
K562 [21] = test: Induction of cell cycle arrest in human K562 cells assessed as G1 phase cells at 1.23 uM by propidium iodide staining based flow cytometry analysis (reference value: 43.16%); assay type: functional
K562 [22] = test: Induction of cell cycle arrest in human K562 cells assessed as G1 phase cells at 2.45 uM by propidium iodide staining based flow cytometry analysis (reference value: 43.16%); assay type: functional

COC1=CC2[C@@H]3Cc4ccc(OC)c(OCCCCCOC(=O)CCCCC(CCSCc5ccccc5)SCc5ccccc5)c4[C@]2(CCN3C)CC1=O (some centres not stated)
Activity (K562 [1]): 3.47%
Activity (K562 [2]): 60.57%
Activity (K562 [3]): 39.9%
Activity (Cell membrane [4]): 26.4%
Activity (K562 [5]): 6.48%
IC50 (K562 [6]): 2.45 µM
Activity (K562 [7]): 13.66%
Activity (K562 [8]): 41.92%
Activity (K562 [9]): 25.04%
Activity (Cell membrane [10]): 41.1%
IC50 (PANC-1): > 50 µM
Activity (K562 [11]): Dose-Dependent Effect
IC50 (A549): 23.9 µM
Activity (K562 [12]): 10.69%
Activity (K562 [13]): 32.95%
Activity (K562 [14]): 24.33%
Activity (K562 [15]): 38.69%
Activity (Cell membrane [16]): 59.1%
IC50 (HepG2): 15.6 µM
Activity (K562 [17]): 3.53%
IC50 (MDA-MB-231): > 50 µM
IC50 (MCF7): 45.4 µM
IC50 [18]: > 50 µM
Activity (K562 [19]): Dose-Dependent Effect
Activity (K562 [20]): 9.83%
Activity (K562 [21]): 47.39%
Activity (K562 [22]): 54.84%
